Measured values published in patent US20100021885A1, “REAGENT SETS AND GENE SIGNATURES FOR NON-GENOTOXIC HEPATOCARCINOGENICITY” (priority 2006, published 2010).
Like-named read-outs stand apart in the source and are kept apart here.

How the values were obtained:
[1] = test system: liver of rats; details: cited from earlier work
[2] = test system: livers from treated male Sprague-Dawley rats
Experimental: Briefly, in vivo short-term repeat dose rat studies were conducted on over 580 test compounds, including marketed and withdrawn drugs, environmental and industrial toxicants, and standard biochemical reagents. Rats (three per group) were dosed daily at either a low or high dose. […] Animals were necropsied on days 0.25, 1, 3, and 5 or 7. Up to 13 tissues (e.g., liver, kidney, heart, bone marrow, blood, spleen, brain, intestine, glandular and nonglandular stomach, lung, muscle, and gonads) were collected for histopathological evaluation and microarray expression profiling on the Amersham CodeLink™ RU1 platform (also referred to herein as “CodeLink Uniset™ Rat 1 Bioarray”). In addition, a clinical pathology panel consisting of 37 clinical chemistry and hematology parameters was generated from blood samples collected on days 3 and 5.
The remaining 21 NGTC chemicals and 26 NC chemicals were reserved for independent validation of the signature. Each chemical was evaluated in a short term repeat dose in vivo study in male Sprague-Dawley rats (n=3/group). The livers from treated and control rats were collected after 1, 3 and 5 days of dosing and RNA was extracted for gene expression profiling. Gene expression changes in treated animals were compared to suitably matched controls and represented as average log10 ratios for each treatment group. Since the development of tumors is a long term multi-step process, the 100 training set chemicals were profiled at the latest time point in order to capture gene expression changes that were likely to be reflective of repeat dose treatment effects that contribute to carcinogenicity and not reflective of an initial stimulus following a single dose that may be transient in nature.
Male Sprague-Dawley (Crl:CD®(SD)(IGS)BR) rats (weight matched, 7 to 8 weeks of age and averaging 200 to 250 g) were purchased from Charles River Laboratories (Portage, Mich.) and housed individually in hanging, stainless steel, wire-bottom cages in a temperature (66-77° F.), light (12-hour dark/light cycle) and humidity (30-70%) controlled room. […] Housing and treatment of the animals were in accordance with regulations outlined in the USDA Animal Welfare Act (9 CFR Parts 1, 2 and 3). Animals were assigned to groups such that mean body weights were within 10% of the mean vehicle control group. Test articles were administered either orally (10 ml of corn oil/kg body weight) or by intra-peritoneal injection (5 ml of saline/kg body weight), as indicated. Animals were dosed once daily starting on day 0, and necropsied 24 hrs after the last dose, as indicated. An equivalent number of time- and vehicle-matched control rats were treated concurrently.
Briefly, liver samples from 3 rats were chosen from each treatment and control group for gene expression analysis on the Codelink Uniset™ Rat 1 Bioarray (GE Healthcare Bio-Sciences Corp., Piscataway, N.J.). A complete list of probes on the array is provided on the Amersham Biosciences web site (www.amershambiosciences.com). Log transformed signal data for all probes were array-wise normalized used Array Qualifier (Novation Biosciences, Palo Alto, Calif.), a non-linear centralization normalization procedure adapted for the CodeLink microarray platform. Log10 ratios for each experimental group are computed as the difference between the average of the logs of the normalized experimental signals and the average of the logs of the normalized control signals for each gene.
where S is the scalar product and b is the bias term. Evaluation of S for a test experiment across the n genes in the signature determines what side of the hyperplane in m dimensional space the test experiment lies, and thus the result of the classification. Experiments with scalar products greater than 0 are considered positive for non-genotoxic hepatocarcinogenicity.

[3] = literature-curated: induction of neoplastic lesions in the liver of rats, two year rodent bioassay results and/or class effect information
[4] = 37 gene signature, maximum scalar product over days 1, 3 and 5, scalar product greater than zero = positive
[5] = maximum of days 1, 3, 5, greater than zero = classified non-genotoxic hepatocarcinogen
[6] = male, Sprague-Dawley, rat, in vivo
[7] = test chemicals, literature class NGTC or NC

CN(C)CCN(Cc1cccs1)c1ccccn1
Class [1, 3]: NGTC

C=C(Cl)Cl [1,1-dichloroethene, reference compound]
signature prediction for non-genotoxic hepatocarcinogenicity [2, 4]: negative
Max (maximum scalar product observed over the multiple time points) [2, 5]: −0.80

Clc1cc2c(cc1Cl)Oc1cc(Cl)c(Cl)cc1O2 [2,3,7,8-TETRACHLORODIBENZO-P-DIOXIN]
Class [1, 3]: NGTC

CC(=O)Nc1ccc2c(c1)Cc1ccccc1-2 [2-acetylaminofluorene, reference compound]
Class ([1]; genotoxic hepatocarcinogens section): GTC
signature prediction for non-genotoxic hepatocarcinogenicity [2, 4]: weakly positive
scalar product (SP) ([2]; 37 gene signature, maximum scalar product over the time points): 0.03
Max (maximum scalar product observed over the multiple time points) [2, 5]: 0.03

C[C@]12CCC(=O)C=C1CC[C@@H]1[C@@H]2CC[C@@]2(C)[C@H]1CC[C@]2(C)O [17-METHYLTESTOSTERONE]
Class [1, 3]: NGTC

Clc1ccc2c(c1)C(N1CCNCC1)=Nc1ccccc1O2 [AMOXAPINE]
Max (maximum scalar product observed over the multiple time points) [2, 6]: −1.00

CC(C)c1c(C(=O)Nc2ccccc2)c(-c2ccccc2)c(-c2ccc(F)cc2)n1CC[C@@H](O)C[C@@H](O)CC(=O)O [ATORVASTATIN]
Max (maximum scalar product observed over the multiple time points) [2, 6]: 1.85

CC(C)(C)CC(C)(C)c1ccc(OCCOCC[N+](C)(C)Cc2ccccc2)cc1 [BENZETHONIUM CHLORIDE]
Day 1 (scalar product) ([2]; male, rat, in vivo): −0.13
Day 3 (scalar product) ([2]; male, rat, in vivo): −1.34
Day 5 (scalar product) ([2]; male, rat, in vivo): −1.68
Max (maximum scalar product observed over the multiple time points) ([2]; male, rat, in vivo): −0.13

C[C@]12CC[C@@H]3c4ccc(OC(=O)c5ccccc5)cc4CC[C@H]3[C@@H]1CC[C@@H]2O [BETA-ESTRADIOL 3-BENZOATE]
Day 1 (scalar product) ([2]; Female, 37 gene signature, day 1): 0.81
Day 3 (scalar product) ([2]; Female, 37 gene signature, day 3): 0.25
Day 5 (scalar product) ([2]; Female, 37 gene signature, day 5): 0.03
Max (maximum scalar product) ([2]; Female, maximum of days 1, 3, 5): 0.81

O=c1cc(-c2ccccc2)oc2ccc3ccccc3c12 [BETA-NAPHTHOFLAVONE]
Class [1, 7]: NGTC
Max (maximum scalar product observed over the multiple time points) [2, 5]: 0.81

CC(C)(Oc1ccc(CCNC(=O)c2ccc(Cl)cc2)cc1)C(=O)O [BEZAFIBRATE]
Class [1, 7]: NGTC
Max (maximum scalar product observed over the multiple time points) [2, 6]: 2.72

CC(NC(C)(C)C)C(=O)c1cccc(Cl)c1 (stereo not shown) [BUPROPION]
Class [1, 3]: NGTC

CCOC(=O)n1ccn(C)c1=S [CARBIMAZOLE]
Max (maximum scalar product observed over the multiple time points) [2, 6]: −0.38

C=C1CC[C@H](O)C/C1=C/C=C1\CCC[C@]2(C)[C@@H]([C@H](C)CCCC(C)C)CC[C@@H]12 [CHOLECALCIFEROL]
Max (maximum scalar product observed over the multiple time points) [2, 5]: −1.38

CN(C)CCCC1(c2ccc(F)cc2)OCc2cc(C#N)ccc21 (stereo not shown) [CITALOPRAM]
Max (maximum scalar product observed over the multiple time points) [2, 6]: −0.28

CCOC(=O)C(C)(C)Oc1ccc(Cl)cc1 [CLOFIBRATE]
Class [1, 3]: NGTC

CC(C)(Oc1ccc(Cl)cc1)C(=O)O [CLOFIBRIC ACID]
Max (maximum scalar product observed over the multiple time points) [2, 6]: 0.86

CCN(CC)CCOc1ccc(C(=C(Cl)c2ccccc2)c2ccccc2)cc1 [CLOMIPHENE]
Max (maximum scalar product observed over the multiple time points) [2, 6]: −1.71

CN(C)CCCN1c2ccccc2CCc2ccc(Cl)cc21 [CLOMIPRAMINE]
Max (maximum scalar product observed over the multiple time points) [2, 6]: −1.46

Nc1ccn([C@@H]2O[C@H](CO)[C@@H](O)[C@@H]2O)c(=O)n1 [CYTARABINE]
Max (maximum scalar product observed over the multiple time points) [2, 6]: −0.71

CN1C(=O)CN=C(c2ccccc2)c2cc(Cl)ccc21 [DIAZEPAM]
Day 1 (scalar product) ([2]; male, rat, in vivo): −1.40
Day 3 (scalar product) ([2]; male, rat, in vivo): −0.06
Day 5 (scalar product) ([2]; male, rat, in vivo): 0.52
Max (maximum scalar product observed over the multiple time points) ([2]; male, rat, in vivo): 0.52

CC[C@H]1OC(=O)[C@H](C)[C@@H](O[C@H]2C[C@@](C)(OC)[C@@H](O)[C@H](C)O2)[C@H](C)[C@@H](O[C@@H]2O[C@H](C)C[C@H](N(C)C)[C@H]2O)[C@](C)(O)C[C@@H](C)C(=O)[C@H](C)[C@@H](O)[C@]1(C)O [ERYTHROMYCIN]
Max (maximum scalar product observed over the multiple time points) [2, 6]: −1.18

C[C@]12CC[C@@H]3c4ccc(O)cc4CC[C@H]3[C@@H]1C[C@@H](O)[C@@H]2O [ESTRIOL]
Class ([1]; rat, in vivo): NGTC

CCO [ETHANOL]
Class [1, 3]: NGTC

C#C[C@]1(O)CC[C@H]2[C@@H]3CCc4cc(O)ccc4[C@H]3CC[C@@]21C [ETHINYLESTRADIOL]
Class [1, 3]: NGTC

CC(C)OC(=O)C(C)(C)Oc1ccc(C(=O)c2ccc(Cl)cc2)cc1 [FENOFIBRATE]
Class [1, 3]: NGTC

CC(C)(C)NC(=O)[C@H]1CC[C@H]2[C@@H]3CC[C@H]4NC(=O)C=C[C@]4(C)[C@H]3CC[C@]12C [FINASTERIDE]
Max (maximum scalar product observed over the multiple time points) [2, 6]: 0.22

Cc1ccc(C)c(OCCCC(C)(C)C(=O)O)c1 [GEMFIBROZIL]
Class [1, 3]: NGTC

CC(C)=CCC/C(C)=C/CO [GERANIOL]
Max (maximum scalar product observed over the multiple time points) [2, 5]: −0.30

O=C1Nc2ccc(Cl)cc2C(c2ccccc2Cl)=NC1O (stereo not shown) [LORAZEPAM]
Max (maximum scalar product observed over the multiple time points) [2, 5]: 0.10

CC(C)(Oc1ccc(C2CCCc3ccccc32)cc1)C(=O)O (stereo not shown) [NAFENOPIN]
Class [1, 3]: NGTC

Cc1ccnc2c1NC(=O)c1cccnc1N2C1CC1 [NEVIRAPINE]
Max (maximum scalar product observed over the multiple time points) [2, 6]: −0.38

C[C@]12C/C(=C/O)C(=O)C[C@@H]1CC[C@@H]1[C@@H]2CC[C@@]2(C)[C@H]1CC[C@]2(C)O [OXYMETHOLONE]
Max (maximum scalar product observed over the multiple time points) [2, 5]: −0.36

CCCC(C)C1(CC)C(=O)NC(=O)NC1=O (stereo not shown) [PENTOBARBITAL]
Class [1, 3]: NGTC

c1ccc2c(c1)Nc1ccccc1S2 [PHENOTHIAZINE]
Max (maximum scalar product observed over the multiple time points) [2, 5]: 0.70

Cc1cccc(Nc2cc(Cl)nc(SCC(=O)O)n2)c1C [PIRINIXIC ACID]
Class [1, 3]: NGTC

CC[C@H](C)C(=O)O[C@H]1C[C@H](O)C=C2C=C[C@H](C)[C@H](CC[C@@H](O)C[C@@H](O)CC(=O)O)[C@H]21 [PRAVASTATIN]
Class [1, 3]: NGTC

CC(=O)[C@H]1CC[C@H]2[C@@H]3CCC4=CC(=O)CC[C@]4(C)[C@H]3CC[C@]12C [PROGESTERONE]
Class [1, 3]: NGTC

OCCOCCN1CCN(C2=Nc3ccccc3Sc3ccccc32)CC1 [QUETIAPINE]
Max (maximum scalar product observed over the multiple time points) [2, 6]: −0.42

O=C(c1ccc(OCCN2CCCCC2)cc1)c1c(-c2ccc(O)cc2)sc2cc(O)ccc12 [RALOXIFENE, reference compound]
Max (maximum scalar product) ([2]; female, Sprague-Dawley, rat, in vivo): −0.66
Day 1 (scalar product) ([2]; female, Sprague-Dawley, rat, in vivo, 1 day): −0.66
Day 3 (scalar product) ([2]; female, Sprague-Dawley, rat, in vivo, 3 days): −1.25
Day 5 (scalar product) ([2]; female, Sprague-Dawley, rat, in vivo, 5 days): −2.11

C=CCc1ccc2c(c1)OCO2 [SAFROLE]
Class ([1]; rat, in vivo): NGTC

CN(C)[C@@H]1C(O)=C(C(N)=O)C(=O)[C@@]2(O)C(O)=C3C(=O)c4c(O)cccc4[C@@](C)(O)[C@H]3C[C@@H]12 [TETRACYCLINE]
Day 1 (scalar product) ([2]; male, rat, in vivo): −0.40
Day 3 (scalar product) ([2]; male, rat, in vivo): −1.18
Day 5 (scalar product) ([2]; male, rat, in vivo): −1.31
Max (maximum scalar product observed over the multiple time points) ([2]; male, rat, in vivo): −0.40

CC(=N)S [THIOACETAMIDE]
Class [1, 3]: NGTC

Cc1cccc(C)c1NC(=O)C(C)N (stereo not shown) [TOCAINIDE]
Max (maximum scalar product observed over the multiple time points) [2, 6]: −0.91

COc1ccc(C(CN(C)C)C2(O)CCCCC2)cc1 (stereo not shown) [VENLAFAXINE]
Max (maximum scalar product observed over the multiple time points) [2, 5]: −0.95

CCC1=C[C@@H]2CN(C1)Cc1c([nH]c3ccccc13)[C@@](C(=O)OC)(c1cc3c(cc1OC)N(C)[C@H]1[C@@](O)(C(=O)OC)[C@H](OC(C)=O)[C@]4(CC)C=CCN5CC[C@]31[C@@H]54)C2 [VINORELBINE]
Max (maximum scalar product observed over the multiple time points) [2, 6]: −1.37

CC(O)CO (stereo not shown) [propylene glycol, reference compound]
Max (maximum scalar product observed over the multiple time points) [2, 6]: −0.80
signature prediction for non-genotoxic hepatocarcinogenicity ([2]; rat, in vivo): negative

aflatoxin B1
Class ([1]; rat, in vivo): GTC
